Earlier results as cited in US20100203024A1 (priority 2006, published 2010).

Tested on: non-small-cell lung cancer
Details: patients with refractory disease

C#Cc1cccc(Nc2ncnc3cc(OCCOC)c(OCCOC)cc23)c1 [erlotinib]
partial responses, percent of patients: 9%
